Measured values from patent US5360803A, “Composition and method for treating cancer” (Dan Farber Cancer Institute, priority 1992, dated 1994).
Read-outs that look alike come from different tables or passages of the source.

What was measured:
human melanoma LOX = assay: survival of nude mice implanted with human melanoma LOX; assay type: in vivo, male athymic Swiss nu/nu mouse (human tumor); details: for response vs control in vivo at 5 mg/kg: Mus musculus, ip, read-out: T/C
Protocol: LOX, a human melanoma cell line, grown subcutaneously in nude mice was excised, trypsinized to yield a single cell suspension using a metal grid with a […] mesh. […] Five million viable trypan blue negative cells made up in 0.1 ml of Dulbecco modified Eagle medium (DMFE) were injected into the peritoneal cavity of a male athymic Swiss nu/nu mouse. The control group and each treatment group consisted of 5 to 10 mice. Treatment was commenced the following day by intraperitoneal injection.
Ten control mice received 0.25 ml of 2% dextrose on these days the treated groups were injected with the compounds of this invention. […] T/C is the ratio, expressed as a percentage of the mean survival age of the treated group to the mean survival age of the untreated control group.

CV-1 cells = assay: selective killing assay, colony number reduced to 50% of control, normal monkey kidney epithelial cell line CV-1; assay type: cell-based; details: 24 hours treatment; for IC50: Primates
Description: (§1) The control received culture media only.

LOX cells = assay: colony assay of Example 1 with human melanoma LOX cell line; assay type: cell-based; details: for Selectivity: CV-1/LOX; for IC50: LOX; for IC50 / LOX(IC50): Table V, human melanoma, 24 hours treatment;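 as to all read-outs here: colony formation assay with 24 h exposure at 37 °C, then 7 to 10 days of regrowth, crystal violet staining of colonies, control wells given medium alone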
CX-1 cells = assay: selective killing assay, colony number reduced to 50% of control, human colon carcinoma cell line CX-1; assay type: cell-based; details: for Selectivity (ratio of IC50 for CV-1 and IC50 for CX-1): CV-1/CX-1; for CX-1 (IC50): Table III; for IC50: Homo sapiens;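 as to all read-outs here: colonies stained with crystal violet and counted, control cells given medium alone, exposure at 37 °C, normal monkey kidney epithelial CV-1 cells as the non-cancer comparator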
Protocol: (§2) Human colon carcinoma cell line CX-1 or normal monkey kidney epithelial cell line CV-1 was chosen as representatives of cancer cells and normal cells, respectively. […] CX-1 cells (2,000 cells/well) and CV-1 cells (1,000 cells/well) were plated in 24-well plastic culture plates. […] The control received culture media only. Cells were treated with compounds of General Formulas (I) to (V) at 37° C. for 24 hours. After rinsing with fresh culture medium three times, the cells were further incubated at 37° C. for 7 to 10 days. Cell colonies were fixed and stained with 2% crystal violet in 70% ethanol for 10 minutes and rinsed in water. […] The selectivity is defined as the ratio of IC50 for CV-1 and IC50 for CX-1.

EJ cells = assay: colony assay of Example 1 with human bladder carcinoma EJ cell line; assay type: cell-based; details: for Selectivity: CV-1/EJ; for IC50: EJ; for IC50 / EJ (IC50): Table IV, human bladder carcinoma, 24 hours treatment;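 as to all read-outs here: colony formation assay with 24 h compound exposure at 37 °C, then 7–10 days drug-free regrowth, colonies stained with crystal violet, controls given medium alone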
Protocol: as §2

CRL 1420 cells = assay: colony assay of Example 1 with human pancreatic carcinoma CRL 1420 cell line; assay type: cell-based; details: for Selectivity: CV-1/CRL-1420;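 as to all read-outs here: colony formation assay, cells exposed for 24 h then regrown 7 to 10 days without compound, colonies stained with crystal violet, control given medium alone, normal reference CV-1 monkey kidney epithelial cells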
[1] = system: human colon carcinoma CX-1; assay: anti-human colon carcinoma CX-1 activity using nude mice; assay type: in vivo, Swiss nu/nu mice (human tumor)
Description: Human colon carcinoma cell line CX-1 has been chosen by the National Cancer Institute as a mode for cancer drug screening (NCI Protocol 3C2H2). It was established in culture from the surgical explant of the primary colon adenocarcinoma of a person with no previous chemotherapy. The cultured CX-1 cells, upon subcutaneous injection, can grow readily in nude mice as a moderately- to well-differentiated human colon carcinoma. CEA is expressed as expected for differentiated colon carcinoma cells. Abundant keratin, consistent with epithelial origin, is present. Increased uptake and prolonged retention of delocalized lipophilic cations are observed.
Swiss nu/nu mice obtained from Taconic Farm were housed in a pathogen-free environment. Tumors subcutaneously passaged in nude mice were excised under sterile conditions and converted to a single cell suspension using a metal grid with a 0.4 mm mesh. Red blood cells were lysed by incubation with 0.17M ammonium chloride at 4° C. for 20 minutes. Cells were scored for viability with trypan blue. Viable CX-1 cells (2.5 million) made up in 0.1 ml of […]. The mice were randomly allocated into a control group (five mice) and a treatment group (five mice per group). The drug treatment was commenced the next day. Doses and schedules were developed empirically and were based mainly on information on LD50 and LD1O obtained from preliminary toxicity studies. The control group received an equivalent volume of hydroxypropyl-β-cyclodextrin-5% glucose solution.
The pharmaceutical compositions tested comprised solutions in 5% glucose subjected to sonication at concentrations of 1 mg/ml. Those compounds which were not completely dissolved by this procedure were dissolved hydroxypropyl-β-cyclodextrin using the following method. Hydroxypropyl-β-cyclodextrin (45 g) was mixed with 100 ml of sterilized, double distilled water and stirred for four hours. Each of the compounds to be tested (20 mg) was mixed with 10 ml of hydroxypropyl-β-cyclodextrin solution and sonicated for 60 minutes in the dark. This solution was then diluted in 5% glucose to yield a final compound concentration of 0.5 mg/ml, and further sonicated for 60 minutes in the dark to assure that the compound was completely dissolved.
When the growth of tumors in the control group reached the exponential phase and the size of the tumor was palpable (usually 20 to 30 days after tumor implantation), the experiments were terminated. Tumors in each mouse were excised and weighed using an analytical balance. Total tumor weight in each group from five mice was calculated. Per cent tumor inhibition between the treated group and the control group was then calculated for each group.

MCF-7 cells = assay: colony assay of Example 1 with human breast carcinoma MCF-7 cell line; assay type: cell-based; details: for Selectivity: CV-1/MCF-7; for MCF-7(IC50) / IC50: Table VI, human breast carcinoma, 24 hours treatment
Description: as §1

[2] = human colon carcinoma, 24 hours treatment, colony count after 7 to 10 days
[3] = Table III, normal monkey kidney epithelial cells, colony count after 7 to 10 days
[4] = Table VII, human pancreatic carcinoma, 24 hours treatment
[5] = CX-1, Table III, human colon carcinoma, 24 hours treatment, colony count after 7 to 10 days
[6] = CV-1, Table III, normal monkey kidney epithelial cells, colony count after 7 to 10 days
[7] = 24 h, 5 mg/kg i.p. on day 1, 4, 8, 11, 15

| Compound | IC50 (CV-1 cells; CV-1, 24 h, Table V) | Selectivity (LOX cells) | Selectivity (ratio of IC50 for CV-1 and IC50 for CX-1) (CX-1 cells) | CX-1 (IC50) (CX-1 cells; [2]) | Selectivity (EJ cells) | Selectivity (CRL 1420 cells) | CV-1 (IC50) (CV-1 cells; [3]) | LOX(IC50) (LOX cells) | CRL-1420(IC50) (CRL 1420 cells; [4]) | Selectivity (MCF-7 cells) | IC50 (CX-1 cells; [5]) | other results |
| --- | --- | --- | --- | --- | --- | --- | --- | --- | --- | --- | --- | --- |
| CCn1c(=Cc2ccc3ccccc3[n+]2CC)sc(=C2Sc3ccccc3N2C)c1=O [Compound 21] | 8 µg/mL | 261 | 800 | 0.01 µg/mL | 364 | 261 |  |  |  |  |  | response vs control in vivo at 5 mg/kg (human melanoma LOX; 5 mg/kg i.p. on day 1, 2.5 mg/kg on day 5, 8): 133%; IC50 (CV-1 cells; CV-1, 24 h, Table IV): 8 µg/mL; IC50 (CV-1 cells; CV-1, 24 h, Table VII): 8 µg/mL; IC50 (LOX cells; Homo sapiens, 24 h): 0.03 µg/mL; IC50 (EJ cells; Homo sapiens, 24 h): 0.022 µg/mL; IC50 (CRL 1420 cells; Homo sapiens, 24 h, Table VII, human pancreatic carcinoma, 24 hours treatment): 0.03 µg/mL; inhibition in vivo at 2.5 mg/kg ([1]; Mus musculus, ip, 24 h, 2.5 mg/kg i.p. on day 1, 5, 8, 12, read-out: Tumor Inhibition): 50.2% |
| CCn1c(=CC2=[N+](CC)CCS2)sc(=C2Sc3ccccc3N2C)c1=O [Compound 335] |  | 667 | 200 | 0.1 µg/mL | 200 | 500 | 26 µg/mL | 0.03 µg/mL | 0.04 µg/mL | 100 |  | response vs control in vivo at 5 mg/kg (human melanoma LOX; 24 h, 5 mg/kg i.p. on day 1, 5, 8, 11, 14): 189%; CV-1 (IC50) (CV-1 cells; Table IV): 20 µg/mL; CV-1 (IC50) (CV-1 cells; Table V): 20 µg/mL; CV-1 (IC50) (CV-1 cells; Table VI): 20 µg/mL; CV-1 (IC50) (CV-1 cells; Table VII): 20 µg/mL; EJ (IC50) (EJ cells): 0.1 µg/mL; MCF-7(IC50) (MCF-7 cells): 0.2 µg/mL |
| CN1C(=c2sc(=Cc3oc4ccccc4[n+]3C)n(C)c2=O)Sc2ccccc21 [Compound 57] |  |  | 120 |  |  |  | 6 µg/mL |  |  |  | 0.05 µg/mL | response vs control in vivo at 5 mg/kg (human melanoma LOX; 24 h, 5 mg/kg i.p. on day 1, 2, 3, 6, 7, 8, 9, 10, 14): 163%; inhibition in vivo at 10 mg/kg ([1]; Mus musculus, ip, 24 h, 10 mg/kg i.p. on day 1, 2, 5, 6, 7, 8, read-out: Tumor Inhibition): 66.3% |
| CC[n+]1c(C=c2sc(=C3Sc4ccccc4N3C)c(=O)n2-c2ccccc2)sc2ccccc21 [Compound 7] |  |  | 300 |  |  |  |  |  |  |  | 0.005 µg/mL | response vs control in vivo at 5 mg/kg (human melanoma LOX; 24 h, 5 mg/kg i.p. on day 1, 4, 8, 12): 182%; IC50 (CV-1 cells; [6]): 1.5 µg/mL; inhibition in vivo at 5 mg/kg ([1]; Mus musculus, ip, 24 h, 5 mg/kg i.p. on day 1, 5, 7, read-out: Tumor Inhibition): 42% |
| CCn1c(=Cc2oc3ccccc3[n+]2C)sc(=C2Sc3ccccc3N2C)c1=O [Compound 8] | 20 µg/mL | > 200 | 500 |  |  |  |  |  |  |  | 0.04 µg/mL | response vs control in vivo at 5 mg/kg (human melanoma LOX; [7]): 142%; IC50 (LOX cells; Homo sapiens, 24 h): < 0.1 µg/mL; inhibition in vivo at 5 mg/kg ([1]; Mus musculus, ip, 24 h, 5 mg/kg i.p. on day 1, 5, 9, 13, read-out: Tumor Inhibition): 55.1% |
| CCn1c(=Cc2oc3ccccc3[n+]2C)sc(=C2Sc3ccccc3N2C)c1=O [Compound 13] |  | > 222 | > 667 | 0.03 µg/mL | 222 | > 400 | > 20 µg/mL | 0.09 µg/mL | 0.05 µg/mL |  |  | response vs control in vivo at 5 mg/kg (human melanoma LOX; 24 h, 5 mg/kg i.p. on day 1, 4, 8, 11): 147%; CV-1 (IC50) (CV-1 cells; Table IV): 20 µg/mL; CV-1 (IC50) (CV-1 cells; Table V): > 20 µg/mL; CV-1 (IC50) (CV-1 cells; Table VII): > 20 µg/mL; EJ (IC50) (EJ cells): 0.09 µg/mL; inhibition in vivo at 20 mg/kg ([1]; Mus musculus, ip, 24 h, 20 mg/kg i.p. on day 1, 5, 8, 12, 15, 19, read-out: Tumor Inhibition): 87.7% |
| CCn1c(=Cc2sc3c4ccccc4ccc3[n+]2CC)sc(=C2Sc3ccc4ccccc4c3N2C)c1=O [Compound 82] | 20 µg/mL | 312 | 400 |  | 1333 | 1333 |  |  | 0.015 µg/mL | 312 | 0.05 µg/mL | response vs control in vivo at 5 mg/kg (human melanoma LOX; [7]): 142%; IC50 (CV-1 cells; CV-1, 24 h, Table IV): 20 µg/mL; IC50 (CV-1 cells; CV-1, 24 h, Table VI): 20 µg/mL; IC50 (CV-1 cells; CV-1, 24 h, Table VII): 20 µg/mL; IC50 (CV-1 cells; [6]): 20 µg/mL; IC50 (LOX cells; Homo sapiens, 24 h): 0.064 µg/mL; IC50 (EJ cells; Homo sapiens, 24 h): 0.015 µg/mL; IC50 (MCF-7 cells; Homo sapiens, MCF7, 24 h): 0.064 µg/mL |
| CCn1c(=Cc2oc3ccc(-c4ccccc4)cc3[n+]2CC)sc(=C2Sc3ccccc3N2C)c1=O [Compound 203] |  |  |  |  |  |  |  |  |  |  |  | response vs control in vivo at 5 mg/kg (human melanoma LOX; 24 h, 5 mg/kg i.p. on day 1, 5, 9, 13): 139%; inhibition in vivo at 5 mg/kg ([1]; Mus musculus, ip, 24 h, 5 mg/kg i.p. on day 1, 5, 8, 11, read-out: Tumor Inhibition): 71.9% |
| CCn1c(=Cc2oc3ccccc3[n+]2C)sc(=C2Sc3ccccc3N2C)c1=O [Compound 10] |  | > 300 | 500 | 0.04 µg/mL |  | 250 | 20 µg/mL | 0.1 µg/mL | 0.08 µg/mL |  |  | T/C (human melanoma LOX; 5 mg/kg i.p. on day 1, 4, 8, 11, 15, 18): 171%; CV-1 (IC50) (CV-1 cells; Table V): > 30 µg/mL; CV-1 (IC50) (CV-1 cells; Table VII): 20 µg/mL; Tumor Inhibition ([1]; 5 mg/kg i.p. on day 1, 5, 9, 13): 66.0% |
| CCn1c(=Cc2oc3ccccc3[n+]2CC)sc(=C2Sc3ccccc3N2C)c1=O [Compound 28] |  |  | 175 | 0.04 µg/mL |  |  | 7 µg/mL |  |  |  |  | inhibition in vivo at 5 mg/kg ([1]; Mus musculus, ip, 24 h, 5 mg/kg i.p. on day 1, 4, 8, 12, 16, 21, read-out: Tumor Inhibition): 68.8% |
| CCn1c(=Cc2sc3ccccc3[n+]2CC)sc(=C2Sc3ccccc3N2C)c1=O [Compound 2] | 10 µg/mL | 667 | 333 |  | 200 | 1000 |  | 0.015 µg/mL | 0.01 µg/mL | 111 |  | response vs control in vivo at 5 mg/kg (human melanoma LOX; [7]): 163%; IC50 (CV-1 cells; CV-1, 24 h, Table VI): 10 µg/mL; IC50 (CV-1 cells; CV-1, 24 h, Table VII): 10 µg/mL; IC50 (CV-1 cells; [6]): 10 µg/mL; CV-1 (IC50) (CV-1 cells; Table IV): 4 µg/mL; IC50 (CX-1 cells; CX-1): 0.03 µg/mL; IC50 (EJ cells; Homo sapiens, 24 h): 0.02 µg/mL; MCF-7(IC50) (MCF-7 cells): 0.09 µg/mL |
| CCn1c(=Cc2sc3ccccc3[n+]2CC)sc(=C2Sc3ccccc3N2C)c1=O [Compound 336] |  | 4000 |  |  | 667 | 667 |  |  | 0.03 µg/mL | 100 |  | response vs control in vivo at 5 mg/kg (human melanoma LOX; 24 h, 5 mg/kg i.p. on day 1, 3, 4, 6, 8, 10, 13): 188%; IC50 (CV-1 cells; CV-1, Table IV): 20 µg/mL; IC50 (CV-1 cells; CV-1, Table V): 20 µg/mL; IC50 (LOX cells): 0.005 µg/mL; IC50 (EJ cells): 0.03 µg/mL; IC50 (MCF-7 cells; MCF7): 0.2 µg/mL |
